Measurements reported in US10647690B2, “2,3-epoxy succinyl derivative, preparation method and use thereof” (Institute of Pharmacology and Toxicology Academy of …, priority 2016, dated 2020).
Where two headings read alike, the source gives them in different places.

Biological target: T1, Cathepsin B (Homo sapiens, UniProt P07858)
T1 construct: purchased Biovision K147-100
Test: IC50 determination against Cathepsin B (Biovision kit K147-100)
Assay type: biochemical
Settings: for Selectiviy vs Cathepsin K (fold): selectivity for Cathepsin B over Cathepsin K; for Selectiviy vs Cathepsin L (fold): selectivity for Cathepsin B over Cathepsin L; for Selectiviy vs Cathepsin S (fold): selectivity for Cathepsin B over Cathepsin S; for selectivity for Cathepsin B: statement in words, versus Cathepsin K, L, S
Method: 2. Method for determining IC50 of compounds against cathepsin:
IC50 of compounds against Cathepsin B was determined by using Cathepsin B Inhibitor Screening Kit (Product No. K147-100) from Biovision Company;
2.1.1.2 Preparation of Cathepsin B solution: Cathepsin B enzyme (23 μl) and Cathepsin B reagent (46 μl) were added to Cathepsin B buffer (2231 μl), and mixed well, to prepare Cathepsin B enzyme solution with a volume of 2.3 ml, which was placed on ice for further use.
2.1.2 Preparation of compound solutions: 30 mM and 10 mM compound stock solutions, and control compounds were gradiently diluted in DMSO at a ratio of 1:3, wherein the maximum dilution fold was 19683; the gradiently diluted compound solution (3 μl) was added to Cathepsin K, B, L, and S buffer (27 μl), respectively, and mixed well, wherein the control compounds (FF-FMK, F-F-FMK, FF-FMK and Z-FF-FMK) were at the concentrations of 66.67, 22.22, 7.41, 2.47, 0.82, 0.27, 0.091, 0.03, 0.01, 0.0034 and 0 μM, respectively, the test compounds were at the concentrations of 1000, 333.3, 111.1, 37, 12.3, 4.1, 1.4, 0.46, 0.15, 0.05 and 0 μM, respectively, and the final concentration of DMSO was 10%.
2.1.3.2 Cathepsin B: Cathepsin B substrate (90 μl) was added to Cathepsin B buffer (1710 μl), and mixed well, to prepare Cathepsin B substrate solution with a volume of 1.8 ml, which was placed on ice for further use.
Method for screening cathepsin inhibitors: the cathepsin solution (prepared in Item 2.1.1) was added to a 384-well plate (ProxiPlate-384 Plus, Perkinelmer) at 10 μl/well, and centrifuged at 1000 rpm for Imin; the compound solution (prepared in Item 2.1.2) was then added at 2 μl/well, and every concentration was repeated in two wells; the final concentrations of the test compounds were 100, 33.3, 11.1, 3.7, 1.23, 0.41, 0.14, 0.046, 0.015, 0.005 and 0 μM, respectively, wherein the final concentration of DMSO was 1%; after centrifugation at 1000 rpm for 1 min, the plate was put in a 25° C. incubator for 15 min; the cathepsin substrate solution was then added at 8 µl/well, and centrifuged at 1000 rpm for 1 min; and finally, the fluorescence signal was read in Enspire, wherein the exciting light was at a wavelength of 400 nm, the emitting light was at a wavelength of 505 nm, and continuous reading was performed at 37° C. for 120 min.
Data analysis: the slope (S) for all the samples was calculated by ΔRFU(RFU2−RFU1) and time ΔT(T2−T1), including negative control (Enzyme Control, EC) and positive control (Inhibitor Control, IC: 10 μM (FF-FMK, F-F-FMK, FF-FMK and Z-FF-FMK), and the calculation formula was as followed: Relative inhibition rate %=(SEC−SS)/(SEC−SIC)*100. The IC50 for each compound was obtained by means of fitting by software GraphPad Prism 5.0.

[1] = CTSB, Exp-1, read-out: IC50 (nM) Exp-1
[2] = CTSB, Exp-2, read-out: IC50 (nM) Exp-2
[3] = CTSB, average of Exp-1 and Exp-2, read-out: Ave of IC50
[4] = Table 3, average ± STDEV, read-out: Cathepsin B IC50

IC50 [1] | IC50 [2] | IC50 [3] | IC50 [4] | Selectiviy vs Cathepsin K (fold) | Selectiviy vs Cathepsin L (fold) | Selectiviy vs Cathepsin S (fold) | selectivity for Cathepsin B | SMILES
3.76 nM | 4.64 nM | 4.2 nM | 4.2 ± 0.63 nM | 40 fold | 1563 fold | 357 fold | strong selectivity for Cathepsin B | CCOC(=O)[C@H]1O[C@@H]1C(=O)N[C@@H](CCSC)C(=O)N1CCC(c2ccccc2)CC1 [Compound 13, (2s, 3s)-2-ethoxycarbonyl-3-[2-[(s)-4-methylthio-1-carbonyl-1-(phenylpiperidinyl)butane]formylamino]epoxysuccinic acid]
68.5 nM | 80 nM | 74.3 nM | 74.3 ± 8.18 nM | 22 fold | 129 fold | 193 fold | strong selectivity for Cathepsin B | CCOC(=O)[C@H]1O[C@@H]1C(=O)N[C@@H](CCSC)C(=O)NC(CC)CC [Compound 39, (2s, 3s)-2-ethoxycarbonyl-3-[2-[(s)-4-methylthio-1-carbonyl-1-(1-ethylpropylamino)butane]formylamino]epoxysuccinic acid]
22.3 nM | 25.9 nM | 24.1 nM | 24.1 ± 2.59 nM | 21 fold | – | 167 fold | strong selectivity for Cathepsin B | CCOC(=O)[C@H]1O[C@@H]1C(=O)N[C@@H](CCSC)C(=O)NCCc1cccc(F)c1 [Compound 34, (2s, 3s)-2-ethoxycarbonyl-3-[2-[(s)-4-methylthio-1-carbonyl-1-(3-fluorophenylethylamino)butane]formylamino]epoxysuccinic acid]
20.3 nM | 27.1 nM | 23.7 nM | 23.7 ± 4.78 nM | 28 fold | 185 fold | 149 fold | strong selectivity for Cathepsin B | CCOC(=O)[C@H]1O[C@@H]1C(=O)N[C@@H](CCSC)C(=O)NCCCCc1ccccc1 [Compound 40, (2s, 3s)-2-ethoxycarbonyl-3-[2-[(s)-4-methylthio-1-carbonyl-1-(4-phenylbutylamino)butane]formylamino]epoxysuccinic acid]
17.6 nM | 20.7 nM | 19.2 nM | 19.2 ± 2.26 nM | 116 fold | 210 fold | 524 fold | strong selectivity for Cathepsin B | CCOC(=O)[C@H]1O[C@@H]1C(=O)N[C@@H](CCSC)C(=O)NCCCc1ccccc1 [Compound 8, (2s, 3s)-2-ethoxycarbonyl-3-[2-[(s)-4-methylthio-1-carbonyl-1-(3-phenylpropylamino)butane]formylamino]epoxysuccinic acid]
10.6 nM | 13.5 nM | 12 nM | 12 ± 2.03 nM | 39 fold | 15 fold | 55 fold | – | CCOC(=O)[C@H]1O[C@@H]1C(=O)N[C@@H](CC(C)C)C(=O)NCCC(C)C [zxy-37, E64d, reference compound]
7.19 nM | 9.33 nM | 8.27 nM | 8.27 ± 1.51 nM | 181 fold | 278 fold | 497 fold | strong selectivity for Cathepsin B | CCCCCCNC(=O)[C@H](CCSC)NC(=O)[C@H]1O[C@@H]1C(=O)OCC [Compound 5, (2s, 3s)-2-ethoxycarbonyl-3-[2-[(s)-4-methylthio-1-carbonyl-1-(hexylamino)butane]formylamino]epoxysuccinic acid]
